Experimental data from publication PMC10035947, “Development of novel anilinoquinazoline-based carboxylic acids as non-classical carbonic anhydrase IX and XII inhibitors” (Journal of Enzyme Inhibition and Medicinal Chemistry, 2023).
Like-named read-outs stand apart in the source and are kept apart here.

Tests used:
SF-295 = assay: NCI SRB assay; format: cell-based, human; conditions: for TGI: SF-295, 5-dose
hCA IX = target: T1, hCA IX (Homo sapiens, UniProt Q16790); assay: stopped flow CO2 hydrase assay; format: biochemical
T1 construct: made in house
In short: (§1)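 Recombinant enzymes assayed by stopped-flow CO2 hydration using 0.2 mM phenol red at 557 nm in 20 mM Hepes pH 7.5 with 20 mM Na2SO4, CO2 1.7–17 mM. Inhibitor and enzyme preincubated 15 min at room temperature.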

hCA XII = target: T2, hCA XII (Homo sapiens, UniProt O43570); assay: stopped flow CO2 hydrase assay; format: biochemical
T2 construct: made in house
In short: as §1

hCA I = target: T3, hCA I (Homo sapiens, UniProt P00915); assay: stopped flow CO2 hydrase assay; format: biochemical; conditions: mean from 3 assays
T3 construct: made in house
In short: as §1

KM12 = assay: NCI SRB assay; format: cell-based, human
SK-OV-3 = assay: NCI SRB assay; format: cell-based, human; conditions: for CC50: read-out: LC50 (the source's name)
HT29 = assay: NCI SRB assay; format: cell-based, human
hCA II = target: T4, hCA II (Homo sapiens, UniProt P00918); assay: stopped flow CO2 hydrase assay; format: biochemical; conditions: mean from 3 assays
T4 construct: made in house
In short: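 Stopped-flow CO2 hydration with phenol red (0.2 mM) at 557 nm in 20 mM Hepes pH 7.5, 20 mM Na2SO4, CO2 1.7–17 mM, recombinant enzyme. Inhibitor preincubated 15 min at room temperature; uncatalyzed rate subtracted, Ki via Cheng-Prusoff, mean of ≥3 determinations.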

CAKI-1 = assay: NCI SRB assay; format: cell-based, human; conditions: for CC50: read-out: LC50 (the source's name)
CCRF-CEM = assay: NCI SRB assay; format: cell-based, human; conditions: for GI50 / TGI / CC50: 5-dose; for CC50: read-out: LC50 (the source's name)
MDA-MB-468 = assay: NCI SRB assay; format: cell-based, human; conditions: for CC50: read-out: LC50 (the source's name)
HOP-62 = assay: NCI SRB assay; format: cell-based, human
UACC-62 = assay: NCI SRB assay; format: cell-based, human
[1] = Homo sapiens, KM12, KM 12, 5-dose
[2] = Homo sapiens, HT-29, HT29, 5-dose
[3] = Homo sapiens, MDA-MB-468, MDA-MB-468, 5-dose

T2 sequence (O43570 25-354): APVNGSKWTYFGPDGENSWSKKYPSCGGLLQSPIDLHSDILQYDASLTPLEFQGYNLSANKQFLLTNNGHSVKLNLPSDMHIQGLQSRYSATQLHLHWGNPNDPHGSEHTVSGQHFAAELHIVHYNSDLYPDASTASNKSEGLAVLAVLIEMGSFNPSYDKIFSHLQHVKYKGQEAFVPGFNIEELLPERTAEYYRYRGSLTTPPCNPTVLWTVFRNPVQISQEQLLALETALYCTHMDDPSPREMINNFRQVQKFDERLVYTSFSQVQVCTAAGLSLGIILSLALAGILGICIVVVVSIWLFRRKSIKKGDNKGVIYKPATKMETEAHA
T3 sequence (P00915 whole entry): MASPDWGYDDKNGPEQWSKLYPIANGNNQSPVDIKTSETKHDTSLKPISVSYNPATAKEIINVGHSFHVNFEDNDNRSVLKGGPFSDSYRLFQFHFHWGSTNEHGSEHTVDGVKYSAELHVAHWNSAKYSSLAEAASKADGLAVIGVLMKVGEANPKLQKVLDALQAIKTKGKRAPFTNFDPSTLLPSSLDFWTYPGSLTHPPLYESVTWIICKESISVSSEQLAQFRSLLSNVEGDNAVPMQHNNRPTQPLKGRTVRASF

SMILES: Cc1ccc(-c2nc(Nc3ccccc3C(=O)O)c3ccccc3n2)cc1 [6b, 2-((2-(p-Tolyl)quinazolin-4-yl)amino)benzoic acid]
- GI% (SF-295; SF-295, 10 μM): 94%
- Growth Percent (SF-295; SF-295, 1.00E-5 Molar): 5.81%
- TGI (SF-295): 27.0 µM
- TGI (SF-295; listed as D - 835857): 2.70E-5 Molar
- Selectivity ratio II/IX (hCA IX; KI hCA II / KI hCA IX): 1.40
- Ki (hCA IX; mean from 3 assays): 34.4 µM
- Selectivity ratio I/XII (hCA XII; KI hCA I / KI hCA XII): 14.1
- Selectivity ratio II/XII (hCA XII; KI hCA II / KI hCA XII): 6.79
- Ki (hCA XII; mean from 3 assays): 7.1 µM
- Ki (hCA I): > 100 µM
- LC50 (KM12; [1]): < 100 µM
- LC50 (KM12; Homo sapiens, KM12, KM12, 5-dose): > 100 µM
- GI50 (KM12; [1]): 13.7 µM
- GI% (KM12; KM12, 10 μM): 92%
- Growth Percent (KM12; KM12, 1.00E-5 Molar): 8.37%
- TGI (KM12; KM 12, 5-dose): 81.2 µM
- TGI (KM12; KM12, 5-dose): 8.12E-5 Molar
- CC50 (SK-OV-3; Homo sapiens, SK-OV-3, SK-OV-3, 5-dose): > 100 µM
- GI50 (SK-OV-3; Homo sapiens, SK-OV-3, 5-dose): 11.9 µM
- GI% (SK-OV-3; SK-OV-3, 10 μM): 69%
- Growth Percent (SK-OV-3; SK-OV-3, 1.00E-5 Molar): 31.32%
- TGI (SK-OV-3; SK-OV-3, 5-dose): 55.3 µM
- TGI (SK-OV-3; SK-OV-3, 5-dose, listed as D - 835857): 5.53E-5 Molar
- CC50 (SK-OV-3; SK-OV-3, 5-dose): < 100 µM
- GI% (HT29; HT29, 10 μM): 82%
- Growth Percent (HT29; HT29, 1.00E-5 Molar): 17.79%
- LC50 (50% lethal concentration) (HT29; HT29, 5-dose): < 100 µM
- TGI (HT29; HT29, 5-dose): <100 µM
- TGI (HT29; HT29, 5-dose, listed as D - 835857): > 1.00E-4 Molar
- GI50 (HT29; [2]): 17.9 µM
- LC50 (50% lethal concentration) (HT29; [2]): > 100 µM
- Ki (hCA II): 48.2 µM
- GI% (CAKI-1; CAKI-1, 10 μM): 79%
- Growth Percent (CAKI-1; CAKI-1, 1.00E-5 Molar): 21.08%
- TGI (CAKI-1; CAKI-1, 5-dose): <100 µM
- TGI (CAKI-1; CAKI-1, 5-dose, listed as D - 835857): > 1.00E-4 Molar
- CC50 (CAKI-1; CAKI-1, 5-dose): < 100 µM
- CC50 (CAKI-1; Homo sapiens, CAKI-1, CAKI-1, 5-dose): > 100 µM
- GI50 (CAKI-1; Homo sapiens, CAKI-1, 5-dose): 13.8 µM
- GI% (CCRF-CEM; 10 μM): 87%
- Growth Percent (CCRF-CEM; 1.00E-5 Molar): 12.80%
- GI50 (CCRF-CEM): 5.7 µM
- TGI (CCRF-CEM): <100 µM
- TGI (CCRF-CEM; listed as D - 835857): > 1.00E-4 Molar
- CC50 (CCRF-CEM): < 100 µM
- GI50 (CCRF-CEM; Homo sapiens): 5.72 µM
- CC50 (CCRF-CEM; Homo sapiens): > 100 µM
- GI50 (MDA-MB-468; [3]): 8.29 µM
- CC50 (MDA-MB-468; [3]): > 100 µM
- GI% (MDA-MB-468; MDA-MB-468, 10 μM): 126%
- Growth Percent (MDA-MB-468; MDA-MB-468, 1.00E-5 Molar): -26.88%
- GI50 (MDA-MB-468; MDA-MB-468, 5-dose): 8.3 µM
- TGI (MDA-MB-468; MDA-MB-468, 5-dose, listed as D - 835857): 4.23E-5 Molar
- CC50 (MDA-MB-468; MDA-MB-468, 5-dose): < 100 µM
- GI% (HOP-62; HOP-62, 10 μM): 72%
- Growth Percent (HOP-62; HOP-62, 1.00E-5 Molar): 28.29%
- LC50 (HOP-62; HOP-62, 5-dose): < 100 µM
- TGI (HOP-62; HOP-62, 5-dose): 33.7 µM
- TGI (HOP-62; HOP-62, 5-dose, listed as D - 835857): 3.37E-5 Molar
- LC50 (HOP-62; Homo sapiens, HOP-62, HOP-62, 5-dose): > 100 µM
- GI50 (HOP-62; Homo sapiens, HOP-62, 5-dose): 10.8 µM
- GI50 (UACC-62; Homo sapiens, UACC-62, 5-dose): 10.2 µM
- CC50 (UACC-62; Homo sapiens, UACC-62, 5-dose, read-out: LC50 (the source's name)): 71.6 µM
- GI% (UACC-62; UACC-62, 10 μM): 89%
- Growth Percent (UACC-62; UACC-62, 1.00E-5 Molar): 11.04%
- TGI (UACC-62; UACC-62, 5-dose): 27.0 µM
- TGI (UACC-62; UACC-62, 5-dose, listed as D - 835857): 2.70E-5 Molar
